We go through two compounds from ChEMBL document CHEMBL1148807 (J Med Chem, 2007).

A word on the Ki: it is a measure of affinity in units of concentration, obtained from inhibition or displacement. Lower therefore signals tighter binding.

Structures are written as SMILES. The source made the active and inactive calls. No cut-off for these calls is given here. Non-standard residues stand in square brackets, D forms with d. Residues, ends and D or L forms follow the SMILES beside them. *: point of attachment. X1 = O=C(Cc1ccc(O)cc1)*

Experiment [1] addresses T1, Oxytocin receptor (Homo sapiens) (UniProt P30559).
T1 sequence (whole entry): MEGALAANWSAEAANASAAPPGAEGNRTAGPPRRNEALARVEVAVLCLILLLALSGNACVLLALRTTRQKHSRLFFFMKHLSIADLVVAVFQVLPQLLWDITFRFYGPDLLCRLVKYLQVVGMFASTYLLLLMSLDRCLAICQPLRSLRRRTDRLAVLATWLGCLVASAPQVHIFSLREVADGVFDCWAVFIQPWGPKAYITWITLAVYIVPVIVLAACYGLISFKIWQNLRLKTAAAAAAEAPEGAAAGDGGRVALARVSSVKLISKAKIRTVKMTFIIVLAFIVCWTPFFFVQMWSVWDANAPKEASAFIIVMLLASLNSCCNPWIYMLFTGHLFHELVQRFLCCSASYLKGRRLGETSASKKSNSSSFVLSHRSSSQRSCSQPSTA
In words: Antagonist activity at oxytocin receptor expressed in CHO cells assessed as AVP-induced inositol monophosphate accumulation by IP-one ELISA test. Type of experiment: functional, cell-based.

The target of experiment [2] is T2, Vasopressin V1a receptor (Homo sapiens, UniProt P37288). In words: Agonist activity at human vasopressin V1a receptor expressed in CHO cells assessed as accumulation of inositol phosphate up to 1 uM. Type of experiment: functional, cell-based.
Target sequence in this assay (P37288 whole entry, looked up): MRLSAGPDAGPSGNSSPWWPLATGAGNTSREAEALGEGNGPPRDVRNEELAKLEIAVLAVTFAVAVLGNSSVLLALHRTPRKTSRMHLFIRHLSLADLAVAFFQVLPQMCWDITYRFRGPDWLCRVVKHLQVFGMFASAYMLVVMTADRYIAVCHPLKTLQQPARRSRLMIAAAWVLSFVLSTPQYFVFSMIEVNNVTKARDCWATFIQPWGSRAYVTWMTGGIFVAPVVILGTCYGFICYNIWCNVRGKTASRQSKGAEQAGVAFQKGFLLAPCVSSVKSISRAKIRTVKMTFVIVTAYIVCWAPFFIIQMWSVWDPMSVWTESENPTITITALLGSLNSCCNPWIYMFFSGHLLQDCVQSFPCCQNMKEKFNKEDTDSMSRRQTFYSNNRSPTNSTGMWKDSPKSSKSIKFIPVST
The target of a further experiment is T3, Vasopressin V1b receptor (Homo sapiens, UniProt P47901).
T3 sequence (P47901 whole entry): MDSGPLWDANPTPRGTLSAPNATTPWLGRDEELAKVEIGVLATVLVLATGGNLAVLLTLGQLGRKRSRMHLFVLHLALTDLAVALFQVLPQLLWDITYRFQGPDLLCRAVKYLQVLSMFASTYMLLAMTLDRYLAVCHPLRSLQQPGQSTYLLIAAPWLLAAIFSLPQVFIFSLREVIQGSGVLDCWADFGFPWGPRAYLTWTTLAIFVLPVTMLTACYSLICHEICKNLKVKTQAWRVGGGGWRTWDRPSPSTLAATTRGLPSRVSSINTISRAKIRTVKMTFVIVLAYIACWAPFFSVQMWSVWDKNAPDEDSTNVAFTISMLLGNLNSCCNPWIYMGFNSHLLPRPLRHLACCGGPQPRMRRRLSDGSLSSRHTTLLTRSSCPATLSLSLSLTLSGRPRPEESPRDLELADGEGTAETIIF
In words: Displacement of [3H]AVP from human vasopressin V1b receptor expressed in CHO cells. The experiment is classed as cell-based.

Another experiment addresses Vasopressin V2 receptor (Homo sapiens, UniProt P30518). In words: Displacement of [3H]AVP from human vasopressin V2 receptor expressed in CHO cells. Type of experiment: cell-based. A general note: Displacement assays read how much labelled ligand stays bound in the presence of the test substance.
Experiment [3] has as its target T2, Vasopressin V1a receptor. In words: Antagonist activity at human vasopressin V1a receptor expressed in CHO cells assessed as AVP-induced inositol monophosphate accumulation by IP-one ELISA test. The experiment is classed as functional, cell-based. In general terms: In an ELISA, binding on a coated surface is turned into a signal by an enzyme label.
Target sequence in this assay (P37288 whole entry, looked up): as the sequence (P37288 whole entry, looked up) above
For experiment [4], the target named is T2, Vasopressin V1a receptor. In words: Displacement of [3H]AVP from human vasopressin V1a receptor expressed in CHO cells. The experiment is classed as cell-based.
Target sequence in this assay (P37288 whole entry): as the sequence (P37288 whole entry, looked up) above
For experiment [5], the target named is T1, Oxytocin receptor (Homo sapiens). In words: Agonist activity at human oxytocin receptor expressed in CHO cells assessed as accumulation of inositol phosphate up to 1 uM. The experiment is classed as functional, cell-based.
In the next experiment the target is T4, Oxytocin receptor (Homo sapiens, UniProt P30559).
T4 sequence (P30559 whole entry): T1 sequence (whole entry)
In words: Displacement of [3H]AVP from human oxytocin receptor expressed in CHO cells. Type of experiment: cell-based.

The target of experiment [6] is T2, Vasopressin V1a receptor. In words: Inhibition of human vasopressin V1a receptor expressed in COS7 cells by HTRF-FRET assay using 384-well plate membranes. The experiment is classed as cell-based. To be noted: cos-7.
Target sequence in this assay (P37288 whole entry): as the sequence (P37288 whole entry, looked up) above
The target in experiment [7] is T2, Vasopressin V1a receptor. In words: Inhibition of human vasopressin V1a receptor expressed in CHO cells by polarisation binding assay using 384-well plate membranes. The experiment is classed as cell-based.
Target sequence in this assay (P37288 whole entry): as the sequence (P37288 whole entry, looked up) above
In experiment [8] the target is T2, Vasopressin V1a receptor. In words: Inhibition of human vasopressin V1a receptor expressed in COS7 cells by HTRF-FRET assay using 96-well plate cells. The experiment is classed as cell-based. To be noted: cos-7.
Target sequence in this assay (P37288 whole entry): as the sequence (P37288 whole entry, looked up) above
Experiment [9] addresses T2, Vasopressin V1a receptor. In words: Inhibition of human vasopressin V1a receptor expressed in COS7 cells by HTRF-FRET assay using 96-well plate membranes. Type of experiment: cell-based. To be noted: cos-7. A general note: Time-resolved FRET reads energy transfer from a long-lived donor to a nearby acceptor.
Target sequence in this assay (P37288 whole entry): as the sequence (P37288 whole entry, looked up) above
Experiment [10] deals with T2, Vasopressin V1a receptor. In words: Inhibition of human vasopressin V1a receptor expressed in CHO cells by polarisation binding assay using 96-well plate membranes. The experiment is classed as cell-based.
Target sequence in this assay (P37288 whole entry): as the sequence (P37288 whole entry, looked up) above

Sequence of Vasopressin V2 receptor (P30518 whole entry): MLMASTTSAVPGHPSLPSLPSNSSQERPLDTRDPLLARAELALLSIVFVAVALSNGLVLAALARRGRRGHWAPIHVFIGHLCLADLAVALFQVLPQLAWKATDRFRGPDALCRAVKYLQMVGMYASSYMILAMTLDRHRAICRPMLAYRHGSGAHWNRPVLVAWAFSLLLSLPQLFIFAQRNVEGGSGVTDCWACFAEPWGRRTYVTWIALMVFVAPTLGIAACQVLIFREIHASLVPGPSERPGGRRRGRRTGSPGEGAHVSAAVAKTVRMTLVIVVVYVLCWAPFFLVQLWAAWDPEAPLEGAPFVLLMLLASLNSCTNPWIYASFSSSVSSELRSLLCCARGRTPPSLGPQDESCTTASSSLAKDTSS

On to `CC1CC(C)(C)Nc2c1cc1c(c2S(=O)(=O)O)OC2C(=C1c1c(Cl)c(SCC(=O)NCCCCCC(=O)N(C(=O)[C@H]3CCN(C(=O)[C@H](CCCNC(=N)N)NC(=O)[C@H](CC(N)=O)NC(=O)[C@H](CCC(N)=O)NC(=O)[C@H](Cc4ccccc4)NC(=O)[C@@H](Cc4ccc(O)cc4)N(C)C(=O)CCc4ccc(O)cc4)C3)[C@@H](CCCCN)C(N)=O)c(Cl)c(Cl)c1C(=O)O)CC1C(=NC(C)(C)CC1C)C2S(=O)(=O)O` (stereo partly drawn), for which the Kinact worked out at 0.17 nM in experiment [1] and 0.28 nM on Vasopressin V1a receptor [3]. The outcome (at Vasopressin V1a receptor [2]; in experiment [5]) was inactive. For the same compound, the inhibition constant (Ki) at Vasopressin V1b receptor was 100 nM; on Vasopressin V2 receptor it was greater than 1000 nM; at Vasopressin V1a receptor [4], 0.09 nM; on Oxytocin receptor, 1.04 nM.
`COc1ccc(C[C@@H](NC(=O)Cc2ccc(O)cc2)C(=O)N[C@@H](Cc2ccccc2)C(=O)N[C@@H](CCC(N)=O)C(=O)N[C@@H](CC(N)=O)C(=O)N[C@@H](CCCN=C(N)N)C(=O)N2CCC[C@H]2C(=O)N[C@@H](CCCN=C(N)N)C(N)=O)cc1` (X1-[dY](Me)FQNRPR-NH2): the Ki at Vasopressin V1a receptor [6] was 0.21 nM; on Vasopressin V1a receptor [7] it was 0.032 nM; at Vasopressin V1a receptor [8] it was 0.28 nM; on Vasopressin V1a receptor [9], 0.21 nM; on Vasopressin V1a receptor [10], 0.036 nM.
